# Values quoted from earlier work, collected in patent publication US20240398684A1, “HIGH UV PROTECTION CLEANSING COMPOSITION” (Conopco, Inc., d/b/a UNILEVER, priority 2020, published 2024).
# Details: Reference: Photochem. Photobiol. Sci., 2010,9, 464-469
row,Compound,absorption maxima [nm]
1,"O=S(=O)(O)c1ccc2[nH]c(-c3ccccc3)nc2c1 [PBSA, Phenyl benzimidazole sulphonic acid]",302
2,"O=S(=O)([O-])c1cc(S(=O)(=O)O)cc2[nH]c(-c3ccc(-c4nc5c(S(=O)(=O)[O-])cc(S(=O)(=O)O)cc5[nH]4)cc3)nc12.[Na+].[Na+] [BD, Di sodium phenyl dibenzimidazole tetra sulfonate]",335
3,"CC1(C)C2CCC1(CS(=O)(=O)O)C(=O)C2=Cc1ccc(C=C2C(=O)C3(CS(=O)(=O)O)CCC2C3(C)C)cc1 [TDSA, Terephthalylidene dicamphor sulfonic acid]",345
